Like-named read-outs stand apart in the source and are kept apart here.
How the values were obtained:
[1] = system: HCV replicon cells (replicon RNA level); assay: Cell-Based HCV Replicon Assay; conditions: Hepatitis C virus, 72 h; replicon RNA level by real time PCR (Taqman), cells harvested on day 3; read-out: EC50
Method: To measure cell-based anti-HCV activity of the a Compound of Formula (I), replicon cells were seeded at 5000 cells/well in 96-well collagen I-coated Nunc plates in the presence of the Compound of Formula (I). Various concentrations of a Compound of Formula (I), typically in 10 serial 2-fold dilutions, were added to the assay mixture, with the starting concentration ranging from 250 μM to 1 μM. The final concentration of DMSO was 0.5%, fetal bovine serum was 5%, in the assay media. Cells were harvested on day 3 by the addition of 1× cell lysis buffer (Ambion cat #8721). The replicon RNA level was measured using real time PCR (Taqman assay). The amplicon was located in 5B. The PCR primers were: 5B.2F, ATGGACAGGCGCCCTGA; 5B.2R, […]; the probe sequence was FAM-labeled CACGCCATGCGCTGCGG. GAPDH RNA was used as endogenous control and was amplified in the same reaction as NS5B (multiplex PCR) using primers and VIC-labeled probe recommended by the manufacturer (PE Applied Biosystem). The real-time RT-PCR reactions were run on ABI PRISM 7900HT Sequence Detection System using the following program: 48° C. for 30 min, 95° C. for 10 min, 40 cycles of 95° C. for 15 sec, 60° C. for 1 min. The ΔCT values (CT5B-CTGAPDH) were plotted against the concentration of test compound and fitted to the sigmoid dose-response model using XLfit4 (MDL). EC50 was defined as the concentration of inhibitor necessary to achieve ΔCT=1 over the projected baseline; EC90 the concentration necessary to achieve ΔCT=3.2 over the baseline. Alternatively, to quantitate the absolute amount of replicon RNA, a standard curve was established by including serially diluted T7 transcripts of replicon RNA in the Taqman assay. All Taqman reagents were from PE Applied Biosystems. Such an assay procedure was described in detail in e.g. Malcolm et al., Antimicrobial Agents and Chemotherapy 50: 1013-1020 (2006).
HCV Replicon assay data for selected Compounds of Formula (I) is provided below in Table 1, wherein the compound numbers correspond to the compound numbering set forth in the above specification.

[2] = target: T1, HCV NS5B polymerase (NS5BΔCT21, from HCV-Con 1 isolate, genotype 1b) (Hepatitis C virus genotype 1b, UniProt Q9WMX2); assay: HCV NS5B Polymerase Inhibition Assay; format: biochemical
T1 construct: A soluble C-terminal 21-amino acid truncated NS5B enzyme form; polyhistidine (C); made in house; host or cells: Escherichia coli
Source text: A chemically synthesized 75-mer version, designated DCoH75, whose sequence matches the 3′-end of D-RNA, and DCoH75ddC, where the 3′-terminal cytidine of DCoH75 is replaced by dideoxycytidine, were used for assaying the NS5B enzyme activity as described in Ferrari et al., 12th International Symposium on HCV and Related Viruses, P-306 (2005). The sequence of the template RNA was: 5′-UGUGCCGGUCUUUCUGAACGGGAUAUAAACCUGGCCAGCUUCAUCGAACAAGUUGCCGUGUCUAUGACAUAGAUC-3′. A soluble C-terminal 21-amino acid truncated NS5B enzyme form (NS5BΔCT21, from HCV-Con 1 isolate, genotype 1b, Genbank accession number AJ238799) was produced and purified from Escherichia coli as C-terminal polyhistidine-tagged fusion protein as described in Ferrari et al., J. Virol. 73:1649-1654 (1999). A typical assay contained 20 mM Hepes pH 7.3, 10 mM MgCl2, 60 mM NaCl, 100 μg/ml BSA, 20 units/ml RNasin, 7.5 mM DTT, 0.1 μM ATP/GTP/UTP, 0.026 μM CTP, 0.25 mM GAU, 0.03 μM RNA template, 20 μCi/ml [^33P]-CTP, 2% DMSO, and 30 or 150 nM NS5B enzyme. Reactions were incubated at 22° C. for 2 hours, then stopped by adding 150 mM EDTA, washed in DE81 filter plate in 0.5M di-basic sodium phosphate buffer, pH 7.0, and counted using Packard TopCount after the addition of scintillation cocktail. Polynucleotide synthesis was monitored by the incorporation of radiolabeled CTP. The effect of the Compounds of Formula (I) on the polymerase activity was evaluated by adding various concentrations of a Compound of Formula (I), typically in 10 serial 2-fold dilutions, to the assay mixture. The starting concentrations ranged from 200 μM to 1 μM. An IC50 value for the inhibitor, defined as the compound concentration that provides 50% inhibition of polymerase activity, was determined by fitting the cpm data to the Hill equation Y=100/(1+10^((LogIC50-X)*HillSlope)), where X is the logarithm of compound concentration, and Y is the % inhibition. Ferrari et al., 12th International Symposium on HCV and Related Viruses, P-306 (2005) described in detail this assay procedure. It should be noted that such an assay as described is exemplary and not intended to limit the scope of the invention. The skilled practitioner can appreciate that modifications including but not limited to RNA template, primer, nucleotides, NS5B polymerase form, buffer composition, can be made to develop similar assays that yield the same result for the efficacy of the compounds and compositions described in the invention.
NS5B polymerase inhibition data for selected Compounds of Formula (I) is provided below in Table 2, wherein the compound numbers correspond to the compound numbering set forth in the above specification.

[3] = NS5B polymerase inhibition, [33P]-CTP incorporation, 22° C. for 2 hours, read-out: IC50

Row | SMILES | EC50 [1] [nM] | IC50 [2, 3] [nM] | IC50 [2] [nM]
1 | O=C(O)c1c(-c2ccc[nH]c2=O)c2c3occc3c(F)cc2n1Cc1cc2nc[nH]c2cc1Cl [Compound 120] | < 500 | < 25 | 
2 | CNC(=O)c1ccc(F)c(Cn2c(C(=O)O)c(-c3ccc[nH]c3=O)c3c4occc4c(F)cc32)c1 [Compound 121] | < 500 | < 25 | 
3 | O=C(O)c1c(-c2ccc[nH]c2=O)c2c3occc3c(F)cc2n1Cc1cc2ccccc2nc1Cl [Compound 126] | < 500 |  | < 25
4 | O=C(O)c1c(-c2ccc[nH]c2=O)c2c3occc3c(F)cc2n1Cc1cc2c(=O)[nH]cnc2cc1F [Compound 127] | < 500 | < 25 | 
5 | O=C(O)c1c(-c2ccccc2F)c2c3occc3c(F)cc2n1Cc1cc2ccccc2nc1Cl [Compound 128] | < 500 | > 100 | 
6 | CCOC(=O)c1c(-c2ccc[nH]c2=O)c2c3occc3c(F)cc2n1Cc1cc(C(N)=O)ccc1F [Compound 130] | < 500 | 25 to 100 | 
7 | O=C(O)c1c(-c2ccc[nH]c2=O)c2c3occc3c(F)cc2n1Cc1cc2[nH]c(=O)[nH]c2cc1Cl [Compound 131] | < 500 | < 25 | 
8 | Cc1cc2ccc3c(c(-c4ccc[nH]c4=O)c(C(=O)NS(C)(=O)=O)n3Cc3ccccc3F)c2o1 [Compound 132] | 500 to 1500 | 25 to 100 | 
9 | CS(=O)(=O)NC(=O)c1c(-c2ccc[nH]c2=O)c2c3occc3c(F)cc2n1Cc1ccnc(N)c1 [Compound 133] | < 500 | < 25 | 
10 | CS(=O)(=O)NC(=O)c1c(-c2ccc[nH]c2=O)c2c3occc3c(F)cc2n1Cc1ccccc1F [Compound 134] | < 500 | < 25 | 
11 | O=C(O)c1c(-c2ccc[nH]c2=O)c2c3occc3c(F)cc2n1Cc1cc(=O)[nH]cc1Br [Compound 135] | < 500 | < 25 | 
12 | O=C(O)c1c(-c2ccc[nH]c2=O)c2c3occc3c(F)cc2n1Cc1nc(Br)ccc1F [Compound 136] | < 500 | < 25 | 
13 | Cc1ccccc1Cn1c(C(=O)NS(=O)(=O)C2CC2)c(-c2ccc[nH]c2=O)c2c3occc3ccc21 [Compound 138] | < 500 | < 25 | 
14 | Cc1ccc2cc(Cn3c(C(=O)O)c(-c4ccc[nH]c4=O)c4c5occc5c(F)cc43)c(Cl)nc2c1 [Compound 139] | < 500 | < 25 | 
15 | Cc1ccc2nc(Cl)c(Cn3c(C(=O)O)c(-c4ccc[nH]c4=O)c4c5occc5c(F)cc43)cc2c1 [Compound 140] | < 500 | < 25 | 
16 | O=C(NC1CC1)c1ccc(F)c(Cn2c(C(=O)O)c(-c3ccc[nH]c3=O)c3c4occc4c(F)cc32)c1 [Compound 141] | > 1500 | < 25 | 
17 | Cc1nn(C)c2nc(Cl)c(Cn3c(C(=O)O)c(-c4ccc[nH]c4=O)c4c5occc5c(F)cc43)cc12 [Compound 143] | < 500 | < 25 | 
18 | O=C(O)c1c(-c2ccc[nH]c2=O)c2c3occc3c(F)cc2n1Cc1ccc2[nH]c(C(F)(F)F)nc2c1 [Compound 145] | 500 to 1500 | < 25 | 
19 | Cc1cccc(Cn2c(C(=O)NS(C)(=O)=O)c(-c3ccc[nH]c3=O)c3c4occc4c(F)cc32)c1F [Compound 146] | < 500 | < 25 | 
20 | Cc1cc2ccc3c(c(-c4ccc[nH]c4=O)c(C(=O)NS(C)(=O)=O)n3Cc3cc(F)ccc3F)c2o1 [Compound 147] | > 1500 | < 25 | 
21 | C[C@@H]1COc2c1ccc1c2c(-c2ccc[nH]c2=O)c(C(=O)NS(C)(=O)=O)n1Cc1cc(F)ccc1F [Compound 148] | < 500 | < 25 | 
22 | CS(=O)(=O)NC(=O)c1c(-c2ccc[nH]c2=O)c2c3occc3c(F)cc2n1Cc1cc(F)ccc1F [Compound 150] | < 500 | < 25 | 
23 | CS(=O)(=O)NC(=O)c1c(-c2ccc[nH]c2=O)c2c3occc3cc(F)c2n1Cc1cc(F)ccc1F [Compound 151] | 500 to 1500 | < 25 | 
24 | Cc1ccc(Cn2c(C(=O)NS(=O)(=O)C3CC3)c(-c3ccc[nH]c3=O)c3c4occc4ccc32)c(C)c1 [Compound 152] | < 500 | < 25 | 
